Key:
MCF-7 cells = experiment: MCF-7 cell proliferation, sulforhodamine B (SRB) assay; assay type: cell-based, human; settings: 48 h exposure, vs vehicle control; for MCF-7 cell viability/proliferation at low concentrations: 0.001–1 µM
Experimental: The SRB assay has been used to study the effects of phytochemicals such as XN, DXN and 8-PN on cell proliferation of various cancer cell lines, including MCF-7 cells[91],[92]. SRB is a dye that binds to cellular proteins of adherent cells and the absorbance readings are a measure of the number of viable cells (cell mass) attached to the culture plate after incubation with the test compounds (samples) in comparison with vehicle control cells. The cell mass is then extrapolated as a measurement of cell viability and cell proliferation. Increased proliferation of MCF-7 cells is one of the measures of estrogenicity of phytochemicals. MCF-7 cells were plated at 10,000 cells/well in 96-well plates in DMEM medium containing 10% charcoal-stripped FBS and antibiotics. […] After incubation with the test compounds for 48 h, the cell culture medium was removed from each well of the 96-well plate and the cells were fixed for 1 h with 10% trichloroacetic acid. The cells on the plate were washed five with distilled water, air-dried, and then stained with SRB dye (0.4% w/v in 1% acetic acid). Excess dye was removed by washing the plate five times with 1% acetic acid. The plates were air-dried and the adsorbed dye was solubilized in 10 mM Tris buffer for 5 min on a shaker before reading the optical density (OD) at 565 nm. The percentage cell viability/proliferation was calculated as follows: (ODSample−ODZeroblank)/(ODControl−ODZeroblank)×100. Mean values and the coefficient of variation (CV) from six replicate wells were calculated and a one-way ANOVA was used to compare statistical differences between treated and control cells, with p < 0.05 as the level of significance.

[1] = tested on: C57BL/6J mice fed a high-fat diet; experiment: 13-week HFD feeding study: body weight, food intake, liver weight, metabolic parameters; assay type: in vivo, mouse; settings: 13 weeks; for Body weight gain / HOMA-IR / Fasting plasma glucose / Feed efficiency / Food intake / Liver weight / Plasma cholesterol / Plasma insulin / Plasma leptin / Plasma triglycerides: male C57BL/6J mice, HFD, mean ± SE; for Body weight gain: 30 mg/kg body weight/day in diet; for Body weight gain / Fasting plasma glucose / Feed efficiency / Food intake / Liver weight / Plasma cholesterol / Plasma insulin / Plasma leptin / Plasma triglycerides: n = 11–12; for HOMA-IR / Fasting plasma glucose / Feed efficiency / Food intake / Liver weight / Plasma cholesterol / Plasma insulin / Plasma leptin / Plasma triglycerides: 30 mg/kg/day in diet; for HOMA-IR: insulin (mU/L) × glucose (mmol/L)/22.5
Description: Nine-week old male C57BL/6J mice, obtained from The Jackson Laboratory (Bar Harbor, ME, USA), were housed individually in plastic cages under a 12–12-hr light-dark cycle. They were assigned randomly to four groups consisting of 12 mice each. One group (control) was fed a HFD (Dyets Inc., Bethlehem, PA, USA) containing 60%, 20% and 20% total calories from fat, carbohydrate and protein, respectively, and the other three groups were fed the HFD containing XN, DXN, or TXN. The test compounds were dissolved in an isotropic mixture of oleic acid:propylene glycol:Tween 80, 0.9:1:1 by weight (OPT) before incorporation into the HFD. The control diet contained an identical amount of OPT. All diets were prepared in pellet form by Dyets, Inc. (Bethlehem, PA, USA). The mouse diets were formulated to deliver a dose of 30 mg test compound per kg body weight per day. Food intake was measured three times per week and body weights were recorded weekly. At the end of 13 weeks of feeding, the mice were euthanized and blood, liver and skeletal muscle were collected for analyses. All animal protocols were approved by Institutional Animal Care and Use Committee (IACUC) at Oregon State University. Animal experiments were carried out in accordance with the relevant guidelines and regulations.
Plasma triglycerides and total cholesterol were analyzed with commercially available kits (Fisher-Scientific, Pittsburgh, PA, USA). Plasma glucose was analyzed by a test kit obtained from Wako Diagnostics (Mountain View, CA, USA). Plasma insulin and leptin were analyzed by ELISA kits purchased from Alpco Diagnostics (Salem, NH, USA) and Crystal Chem (Downers Grove, IL, USA), respectively. Homeostasis Model Assessment of Insulin Resistance (HOMA-IR) was calculated as follows: fasting plasma insulin concentration (mU/L) × fasting plasma glucose level (mmol/L)/22.5[95]. Plasma levels of AST and ALT were measured using commercially-available kits (Bioo Scientific Corp., Austin, TX, USA) as indicators of in vivo liver toxicity.
(§1) Body weight, food intake, and metabolic measurements: data were analyzed using a one-way ANOVA in PROC GLM for single measures within animals (i.e., liver, plasma, and muscle metabolic measures) and a repeated-measures-in-time design ANOVA in PROC MIXED for repeated measures within animals (i.e., body weight, feed intake, and feed efficiency). The area-under-the-curve (AUC) for the glucose tolerance tests were calculated using the trapezoidal rule. Before statistical analysis, data were examined for variance homogeneity and normality. To achieve normality, liver, plasma, and muscle XN data and plasma insulin data were natural log-transformed. For statistical comparisons, the control group was compared with each XN metabolite group.

[2] = tested on: C57BL/6J mice fed a high-fat diet; experiment: Glucose tolerance test; assay type: in vivo, mouse; settings: 30 mg/kg/day, 6 h fast, glucose 2 g/kg i.p., n = 5; for Glucose tolerance test AUC, decrease compared with control, 4 weeks: 4 weeks of feeding; for Glucose tolerance test AUC, decrease compared with control, 11 weeks: 11 weeks of feeding
Experimental: Glucose tolerance tests were conducted after 4 and 11 weeks of feeding the experimental diets. Five mice from each treatment group were used in each glucose tolerance assay. Mice were fasted for 6 h prior to baseline blood glucose testing. Blood was collected from the mice by tail puncture, and glucose measurements were taken using a One Touch UltraMini glucometer (LifeScan, Inc., Milpitas, CA, USA). Mice were weighed and then given an i.p. injection of glucose equal to 2 g/kg body weight. Glucose readings were taken at 0 minutes (prior to glucose injection), and at 15 min, 30 min, 1 h, and 2 h after glucose injection.
as §1

HepG2 cells = experiment: MTT cell viability assay, HepG2; assay type: cell-based, human; settings: 24 h exposure, vs vehicle-treated control cells
Experimental: For cell viability experiments using the MTT assay, mouse C2C12 skeletal muscle myoblasts (ATCC; Manassas, VA, USA) and the human hepatocyte cell line, HepG2 (ATCC; Manassas, VA, USA), were plated in 96-well plates at a density of 4,000 to 10,000 cells per well in 200 μL of DMEM medium supplemented with 10% FBS, 1% glutamine, 1 mM of sodium pyruvate, 100 units/mL penicillin, and 100 μg/mL streptomycin. After incubating 48 h, the medium was removed and the cells were treated with fresh solutions of various concentrations of XN, DXN or TXN in phenol red-free DMEM plus supplements. The final concentrations of XN, DXN, TXN were 1, 2, 5, 8, 10, 25, or 50 μM, in quadruplicate wells. The plates were then incubated for 1 h (for C2C12) or 24 h for HepG2. After removing the medium, the cells were incubated for 2 h with a 0.5 mg/mL solution of MTT in phenol red-free culture medium. After removing the medium and adding a solution of acidified isopropanol to each well, the absorbance of each well was measured at 570 nm by using a spectrometer (SpectraMax 190, Molecular Devices, Sunnyvale, CA, USA). Cell viability of compound-treated cells was calculated as % absorbance of vehicle-treated control cells (Supplementary Fig. S1a and S1b).

COc1cc(O)c(CC=C(C)C)c(O)c1C(=O)CCc1ccc(O)cc1 [DXN, α,β-Dihydroxanthohumol]
MCF-7 cell viability/proliferation at 10 µM (MCF-7 cells): significantly decreased
MCF-7 cell viability/proliferation at low concentrations (MCF-7 cells): did not produce a significant increase
Plasma leptin concentration, change compared with controls ([1]; HFD mice, 30 mg/kg/day): −26%
Body weight gain [1]: 15.1 ± 1.3 g
HOMA-IR [1]: 22.0 ± 5.2
Fasting plasma glucose [1]: 150 ± 13.0 mg/dL
Feed efficiency [1]: 0.062 ± 0.006 g weight gain/g food intake
Food intake [1]: 2.66 ± 0.09 g/day
Liver weight [1]: 1.11 ± 0.07 g
Plasma cholesterol [1]: 167 ± 8.5 mg/dL
Plasma insulin [1]: 2.08 ± 0.69 ng/mL
Plasma leptin [1]: 8.48 ± 1.00 ng/mL
Plasma triglycerides [1]: 84.4 ± 4.9 mg/dL
Glucose tolerance test AUC, decrease compared with control, 4 weeks [2]: 46%
Glucose tolerance test AUC, decrease compared with control, 11 weeks [2]: 35%
HepG2 cell viability (MTT), 1–25 µM (HepG2 cells): did not alter cell viability

COc1cc(O)c(CCC(C)C)c(O)c1C(=O)CCc1ccc(O)cc1 [TXN, tetrahydroxanthohumol]
MCF-7 cell viability/proliferation at 10 µM (MCF-7 cells): significantly decreased
MCF-7 cell viability/proliferation at low concentrations (MCF-7 cells): did not produce a significant increase
HOMA-IR index as % of control mice ([1]; HFD mice, 30 mg/kg/day): 13 % of control mice
Liver weight, change compared with controls ([1]; HFD mice, 30 mg/kg/day): −21%
Plasma insulin, change compared with controls ([1]; HFD mice, 30 mg/kg/day): −82%
Plasma leptin concentration, change compared with controls ([1]; HFD mice, 30 mg/kg/day): −44%
Body weight gain [1]: 9.70 ± 1.4 g
HOMA-IR [1]: 4.10 ± 0.3
Fasting plasma glucose [1]: 118 ± 7.2 mg/dL
Feed efficiency [1]: 0.042 ± 0.006 g weight gain/g food intake
Food intake [1]: 2.51 ± 0.09 g/day
Liver weight [1]: 0.93 ± 0.07 g
Plasma cholesterol [1]: 167 ± 8.9 mg/dL
Plasma insulin [1]: 0.49 ± 0.08 ng/mL
Plasma leptin [1]: 6.39 ± 1.04 ng/mL
Plasma triglycerides [1]: 79.3 ± 7.8 mg/dL
Glucose tolerance test AUC, decrease compared with control, 4 weeks [2]: 61%
Glucose tolerance test AUC, decrease compared with control, 11 weeks [2]: 45%
HepG2 cell viability (MTT), 1–25 µM (HepG2 cells): did not alter cell viability

COc1cc(O)c(CC=C(C)C)c(O)c1C(=O)/C=C/c1ccc(O)cc1 [XN, 3′-[3,3-dimethylallyl]-2′,4′,4-trihydroxy-6′-methoxychalcone]
MCF-7 cell viability/proliferation at 10 µM (MCF-7 cells): significantly decreased
MCF-7 cell viability/proliferation at low concentrations (MCF-7 cells): did not produce a significant increase
Body weight gain [1]: 16.1 ± 1.3 g
HOMA-IR [1]: 31.3 ± 1.7
Fasting plasma glucose [1]: 169 ± 8.3 mg/dL
Feed efficiency [1]: 0.068 ± 0.006 g weight gain/g food intake
Food intake [1]: 2.59 ± 0.09 g/day
Liver weight [1]: 1.14 ± 0.07 g
Plasma cholesterol [1]: 196 ± 8.5 mg/dL
Plasma insulin [1]: 2.61 ± 0.65 ng/mL
Plasma leptin [1]: 10.6 ± 1.00 ng/mL
Plasma triglycerides [1]: 80.6 ± 4.2 mg/dL
Glucose tolerance test AUC, decrease compared with control, 4 weeks [2]: 43%
Glucose tolerance test AUC, decrease compared with control, 11 weeks [2]: 12%
HepG2 cell viability (MTT), 1–25 µM (HepG2 cells): did not alter cell viability

— paper PMC5766630, “Non-estrogenic Xanthohumol Derivatives Mitigate Insulin Resistance and Cognitive Impairment in High-Fat Diet-induced Obese Mice” (Scientific Reports, 2018)
